As a reminder, the pEC50 is −log10 of the EC50, conventionally taken in molar units.

The structures appear in SMILES notation. pEC50: −log10 of the molar value.

These results are taken from patent publication US10844017B2, “Biaryl compound, preparation method and use thereof” (FUDAN UNIVERSITY, priority 2017, dated 2020).

In the test the target is T1, RORγ receptor (B-RORγ LBD / Bioin-SRC1) (Homo sapiens, UniProt P51449).
T1 construct: 40 nM B-RORγ LBD solution
T1 sequence (P51449 269-508 limits assumed): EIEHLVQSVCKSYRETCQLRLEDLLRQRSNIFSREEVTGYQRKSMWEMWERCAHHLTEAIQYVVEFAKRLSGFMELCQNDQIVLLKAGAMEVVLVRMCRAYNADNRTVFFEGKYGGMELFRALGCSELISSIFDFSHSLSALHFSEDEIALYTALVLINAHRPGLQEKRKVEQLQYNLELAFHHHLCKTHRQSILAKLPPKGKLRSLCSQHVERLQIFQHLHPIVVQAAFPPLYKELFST
T1 sequence (Q15788 676-700 partner limits assumed): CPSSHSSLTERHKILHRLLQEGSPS
Briefly: Determination of agonistic activities on RORγ receptors in vitro (dual FRET). The test is classed as biochemical. The note with it: average of at least two independent experiments. As to the method:
Determination of Agonistic Activities of Compounds on RORγ Receptors In Vitro The agonistic activities of compounds described herein on RORγ receptor were determined by dual fluorescence resonance energy transfer (dual FRET) experiments. The agonistic activity was expressed by half maximum effect concentration (EC50).
1) Preparation of RORγ Assay Buffer
100 mL of buffer solution was well mixed with […] DTT for use.
2) Preparation of Solutions of Compounds
3) Preparation of protein mixtures a) 40 nM B-RORγ LBD solution was mixed well with 20 nM SA-APC solution and incubated for 15 minutes at room temperature. Then the resulting mixture was further mixed well with 400 nM Biotin and incubated for another 10 minutes at room temperature. […]
b) 40 nM Bioin-SRC1 solution was mixed well with 10 nM SA-eu solution and was incubated for 15 minutes at room temperature. Then the resulting mixture was further mixed well with 200 nM Biotin and was incubated for another 10 minutes at room temperature. […]
d) A mixture (25 μL) of B-RORγ LBD/SA-APC and Bioin-SRC1/SA-eu together with a test compound was added to one of the wells of a 384-well plate, and then the plate was centrifuged for one minute at 1000 rpm, and incubated at room temperature for one hour. The data were read on an Envision microplate detector and EC50 values were calculated.

`CCC(=O)Nc1cc(Cl)c(-c2ccc(CC(C)C)c(C#N)c2)c(Cl)c1` [Example 1, N-(2,6-Dichloro-3′-cyano-4′-isobutyl-[1,1′-biphenyl]-4-yl)propionamide] had a pEC50 of 7.30 to 8.00. The compound `CC(C)Cc1ccc(-c2c(Cl)cc(NC(=O)c3ccccc3)cc2Cl)cc1C#N` [Example 3, N-(2,6-Dichloro-3′-cyano-4′-isobutyl-[1,1′-biphenyl]-4-yl)benzamide] had a negative logarithm of the EC50 (pEC50) of 7.00 to 7.30. `CC(C)CC(=O)Nc1cc(Cl)c(-c2ccc(CC(C)C)c(C#N)c2)c(Cl)c1` [Example 4, N-(2,6-dichloro-3′-cyano-4′-isobutyl-[1,1′-biphenyl]-4-yl)-3-methylbutanamide] gave a pEC50 of 7.30 to 8.00.

`CC(C)Cc1ccc(-c2c(Cl)cc(NC(=O)Cc3ccccc3)cc2Cl)cc1C#N` [Example 7, N-(2,6-Dichloro-3′-cyano-4′-isobutyl-[1,1′-biphenyl]-4-yl)-2-phenylacetamide]: the pEC50 is 7.30 to 8.00. `CC(C)Cc1ccc(-c2c(Cl)cc(NC(=O)Cc3ccc(=O)[nH]c3)cc2Cl)cc1C#N` [Example 8, N-(2,6-Dichloro-3′-cyano-4′-isobutyl-[1,1′-biphenyl]-4-yl)-2-(6-oxo-1,6-dihydropyridin-3-yl)acetamide] showed a pEC50 of 7.30 to 8.00. In turn, `CC(C)Cc1ccc(-c2c(Cl)cc(NC(=O)Cc3ccnn3C)cc2Cl)cc1C#N` [Example 9B, N-(2,6-dichloro-3′-cyano-4′-isobutyl-[1,1′-biphenyl]-4-yl)-2-(1-methyl-1H-pyrazol-5-yl)acetamide] showed a pEC50 of 7.30 to 8.00. `CC(C)Cc1ccc(-c2c(Cl)cc(NC(=O)Cc3ccc(C#N)cc3)cc2Cl)cc1C#N` [Example 10, 2-(4-Cyanophenyl)-N-(2,6-dichloro-3′-cyano-4′-isobutyl-[1,1′-biphenyl]-4-yl)acetamide] had a pEC50 of 7.30 to 8.00. To `CC(C)Cc1ccc(-c2c(Cl)cc(NC(=O)Cc3cccc(C#N)c3)cc2Cl)cc1C#N` [Example 12, 2-(3-cyanophenyl)-N-(2,6-dichloro-3′-cyano-4′-isobutyl-[1,1′-biphenyl]-4-yl)acetamide] belongs 7.30 to 8.00.

Compound `CC(C)Cc1ccc(-c2c(Cl)cc(NC(=O)Cc3cccnc3)cc2Cl)cc1C#N` [Example 14, N-(2,6-Dichloro-3′-cyano-4′-isobutyl-[1,1′-biphenyl]-4-yl)-2-(pyridin-3-yl)acetamide] had a pEC50 of 7.30 to 8.00. `CC(C)Cc1ccc(-c2c(Cl)cc(NC(=O)Cc3ccncc3)cc2Cl)cc1C#N` [Example 15, N-(2,6-Dichloro-3′-cyano-4′-isobutyl-[1,1′-biphenyl]-4-yl)-2-(pyridin-4-yl)acetamide] had a pEC50 of 7.30 to 8.00. In turn, `CC(C)Cc1ccc(-c2c(Cl)cc(NC(=O)Cc3cccc(S(C)(=O)=O)c3)cc2Cl)cc1C#N` [Example 18, N-(2,6-Dichloro-3′-cyano-4′-isobutyl-[1,1′-biphenyl]-4-yl)-2-(3-(methylsulfonyl)phenyl)acetamide] gave a pEC50 of 7.30 to 8.00.

`CNS(=O)(=O)c1ccc(CC(=O)Nc2cc(Cl)c(-c3ccc(CC(C)C)c(C#N)c3)c(Cl)c2)cc1` [Example 22, N-(2,6-Dichloro-3′-cyano-4′-isobutyl-[1,1′-biphenyl]-4-yl)-2-(4-(N-methylsulfamoyl)phenyl)acetamide] gave a pEC50 of 7.30 to 8.00. Consider `CC(C)Cc1ccc(-c2c(Cl)cc(NC(=O)Cc3ccc(P(C)(C)=O)cc3)cc2Cl)cc1C#N` [Example 23, N-(2,6-Dichloro-3′-cyano-4′-isobutyl-[1,1′-biphenyl]-4-yl)-2-(4-(dimethylphosphoryl)phenyl)acetamide], for which the pEC50 was 7.30 to 8.00.

On to `CC(C)Cc1ccc(-c2c(Cl)cc(NC(=O)Cc3ccc(CC(=O)O)cc3)cc2Cl)cc1C#N` [Example 25, 2-(4-(2-((2,6-Dichloro-3′-cyano-4′-isobutyl-[1,1′-biphenyl]-4-yl)amino)-2-oxoethyl)phenyl)acetic acid], for which the pEC50 was more than 8.00.
